ChEMBL document CHEMBL4334438, “Discovery of novel glycogen synthase kinase-3α inhibitors: Structure-based virtual screening, preliminary SAR and biological evaluation for treatment of acute myeloid leukemia” (Eur J Med Chem, 2019)
Active and inactive are the calls of the source. The calls are words filed in the database; no cut-off is given here.

How the values were obtained:
[1] = target: Fibroblast growth factor receptor 3 (Homo sapiens) (UniProt P22607); assay: Inhibition of recombinant human FGFR3 (447 to 761 residues) assessed as residual activity at 1 uM using poly(Glu, Tyr) 4:1 as substrate at 40 mins in presence of [gamma-33ATP] by scintillation counting based radiometry assay relative to control
[2] = target: Tyrosine-protein kinase Yes (Homo sapiens) (UniProt P07947); assay: Inhibition of recombinant full-length human Yes at 1 uM assessed as residual activity at 1 uM using poly(Glu, Tyr) 4:1 as substrate measured after 40 mins in presence of [gamma33P]ATP by scintillation counting method relative to control
[3] = target: Serine/threonine-protein kinase ULK3 (Homo sapiens) (UniProt Q6PHR2); assay: Inhibition of recombinant full-length human ULK3 at 1 uM assessed as residual activity at 1 uM using casein as substrate measured after 40 mins in presence of [gamma33P]ATP by scintillation counting method relative to control
[4] = test system: Tyrosine-protein kinase ABL1 (Homo sapiens), P00519 [M351T]; assay: Inhibition of human ABL1 M351T mutant (27 to end residues) assessed as residual activity at 1 uM using EAIYAAPFAKKK as substrate incubated for 40 mins in presence of [gamma-33ATP] by scintillation counting based radiometry assay relative to control
[5] = target: Dual specificity tyrosine-phosphorylation-regulated kinase 1A (Homo sapiens) (UniProt Q13627); assay: Inhibition of recombinant human DYRK1A assessed as residual activity at 1 uM using RRRFRPASPLRGPPK as substrate at 40 mins in presence of [gamma-33ATP] by scintillation counting based radiometry assay relative to control
[6] = target: Mitogen-activated protein kinase kinase kinase 2 (Homo sapiens) (UniProt Q9Y2U5); assay: Inhibition of recombinant full length human MEKK2 assessed as residual activity at 1 uM using myelin basic protein as substrate incubated for 40 mins in presence of [gamma-33ATP by scintillation counting based radiometry assay relative to control
[7] = target: Serine/threonine-protein kinase WNK2 (Homo sapiens) (UniProt Q9Y3S1); assay: Inhibition of human WNK2 (166 to 489 residues) assessed as residual activity at 1 uM using myelin basic protein as substrate measured after 40 mins in presence of [gamma33P]ATP by scintillation counting method relative to control
[8] = target: Aurora kinase C (Homo sapiens) (UniProt Q9UQB9); assay: Inhibition of recombinant human Aurora C (35 to end residues) assessed as residual activity at 1 uM using AKRRRLSSLRA as substrate incubated for 40 mins in presence of [gamma-33ATP] by scintillation counting based radiometry assay relative to control
Homo sapiens = organism: Homo sapiens; assay: Inhibition of recombinant human FLT4 V1128L/ H1146R double mutant (800 to end residues) assessed as residual activity at 1 uM using GGEEEEYFELVKKKK as substrate at 40 mins in presence of [gamma-33ATP] by scintillation counting based radiometry assay relative to control
[9] = target: Protein kinase C beta type (Homo sapiens) (UniProt P05771); assay: Inhibition of recombinant human PKCbeta2 (2 to end residues) assessed as residual activity at 1 uM using histone H1 as substrate measured after 40 mins in presence of [gamma33P]ATP by scintillation counting method relative to control
[10] = target: Mitogen-activated protein kinase kinase kinase 3 (Homo sapiens) (UniProt Q99759); assay: Inhibition of recombinant full length human MEKK3 assessed as residual activity at 1 uM using myelin basic protein as substrate incubated for 120 mins in presence of [gamma-33ATP by scintillation counting based radiometry assay relative to control
[11] = target: Serine/threonine-protein kinase/endoribonuclease IRE1 (Homo sapiens) (UniProt O75460); assay: Inhibition of human IRE1 activated (465 to end residues) assessed as residual activity at 1 uM using myelin basic protein as substrate after 40 mins by [gamma-33ATP] radiometric assay relative to control
[12] = target: Serine/threonine-protein kinase PAK 4 (Homo sapiens) (UniProt O96013); assay: Inhibition of recombinant human PAK4 (295 to end residues) assessed as residual activity at 1 uM using myelin basic protein as substrate measured after 40 mins in presence of [gamma33P]ATP by scintillation counting method relative to control
[13] = target: Calcium/calmodulin-dependent protein kinase type II subunit beta (Homo sapiens) (UniProt Q13554); assay: Inhibition of recombinant human CaMK2beta (1 to 315 residues) assessed as residual activity at 1 uM using […] incubated for 40 mins in presence of [gamma-33ATP] by scintillation counting based radiometry assay relative to control
[14] = target: FKBP12A/mTOR (Homo sapiens) (UniProt P62942+P42345); assay: Inhibition of recombinant full length human mTOR/FKBP12 assessed as residual activity at 1 uM measured after 40 mins in presence of [gamma33P]ATP by scintillation counting based radiometry assay relative to control; type: protein-complex assay
[15] = target: Protein-tyrosine kinase 2-beta (Homo sapiens) (UniProt Q14289); assay: Inhibition of recombinant human full length PYK2 assessed as residual activity at 1 uM using poly(Glu, Tyr) 4:1 as substrate measured after 40 mins in presence of [gamma33P]ATP by scintillation counting method relative to control
[16] = target: Tyrosine-protein kinase Fer (Homo sapiens) (UniProt P16591); assay: Inhibition of recombinant human FER (541 to end residues) assessed as residual activity at 1 uM using KKKSPGEYVNIEFG as substrate at 40 mins in presence of [gamma-33ATP] by scintillation counting based radiometry assay relative to control
[17] = test system: Serine/threonine-protein kinase B-raf (Homo sapiens), P15056 [V600E]; assay: Inhibition of recombinant full length human B-Raf V599E mutant (416 to end residues) assessed as residual activity at 1 uM using myelin basic protein as substrate incubated for 40 mins in presence of [gamma-33ATP] by scintillation counting based radiometry assay relative to control
[18] = target: STE20-like serine/threonine-protein kinase (Homo sapiens) (UniProt Q9H2G2); assay: Inhibition of human SLK (1 to 373 residues) assessed as residual activity at 1 uM using RLGRDKYKTLRQIRQ as substrate measured after 40 mins in presence of [gamma33P]ATP by scintillation counting method relative to control
[19] = target: Protein kinase C theta type (Homo sapiens) (UniProt Q04759); assay: Inhibition of recombinant full length human PKCtheta assessed as residual activity at 1 uM using histone H1 as substrate measured after 40 mins in presence of [gamma33P]ATP by scintillation counting method relative to control
NB-4 = assay: Induction of monocytic differentiation in human NB4 cells assessed as increase in CD14 positive cells at 30 uM after 6 days by FITC staining based flow cytometry analysis; type: functional, cell-based
HL-60 = assay: Induction of monocytic differentiation in human HL60 monocytic assessed as increase in CD11c-APC positive cells at 30 uM after 6 days by flow cytometry analysis; type: functional, cell-based

Protein kinase C beta type (Homo sapiens), sequence (P05771 2-671 limits assumed): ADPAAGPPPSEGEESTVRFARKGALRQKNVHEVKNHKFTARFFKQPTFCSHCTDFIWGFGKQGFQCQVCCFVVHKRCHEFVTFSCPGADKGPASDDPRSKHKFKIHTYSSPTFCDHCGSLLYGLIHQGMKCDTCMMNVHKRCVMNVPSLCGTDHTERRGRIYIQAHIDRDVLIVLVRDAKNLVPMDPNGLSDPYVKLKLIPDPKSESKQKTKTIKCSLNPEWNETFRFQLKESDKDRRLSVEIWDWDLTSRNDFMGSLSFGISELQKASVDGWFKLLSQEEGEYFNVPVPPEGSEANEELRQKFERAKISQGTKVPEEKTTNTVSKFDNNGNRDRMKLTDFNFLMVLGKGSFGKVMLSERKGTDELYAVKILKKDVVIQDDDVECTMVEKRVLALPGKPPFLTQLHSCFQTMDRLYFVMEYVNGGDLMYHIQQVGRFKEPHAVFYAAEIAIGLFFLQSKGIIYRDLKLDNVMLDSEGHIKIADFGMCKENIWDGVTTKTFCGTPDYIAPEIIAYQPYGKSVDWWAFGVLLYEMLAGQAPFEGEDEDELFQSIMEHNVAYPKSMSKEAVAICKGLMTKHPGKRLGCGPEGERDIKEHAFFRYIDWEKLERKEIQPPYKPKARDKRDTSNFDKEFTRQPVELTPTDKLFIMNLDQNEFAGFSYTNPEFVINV
Tyrosine-protein kinase Fer (Homo sapiens), sequence (P16591 whole entry, looked up): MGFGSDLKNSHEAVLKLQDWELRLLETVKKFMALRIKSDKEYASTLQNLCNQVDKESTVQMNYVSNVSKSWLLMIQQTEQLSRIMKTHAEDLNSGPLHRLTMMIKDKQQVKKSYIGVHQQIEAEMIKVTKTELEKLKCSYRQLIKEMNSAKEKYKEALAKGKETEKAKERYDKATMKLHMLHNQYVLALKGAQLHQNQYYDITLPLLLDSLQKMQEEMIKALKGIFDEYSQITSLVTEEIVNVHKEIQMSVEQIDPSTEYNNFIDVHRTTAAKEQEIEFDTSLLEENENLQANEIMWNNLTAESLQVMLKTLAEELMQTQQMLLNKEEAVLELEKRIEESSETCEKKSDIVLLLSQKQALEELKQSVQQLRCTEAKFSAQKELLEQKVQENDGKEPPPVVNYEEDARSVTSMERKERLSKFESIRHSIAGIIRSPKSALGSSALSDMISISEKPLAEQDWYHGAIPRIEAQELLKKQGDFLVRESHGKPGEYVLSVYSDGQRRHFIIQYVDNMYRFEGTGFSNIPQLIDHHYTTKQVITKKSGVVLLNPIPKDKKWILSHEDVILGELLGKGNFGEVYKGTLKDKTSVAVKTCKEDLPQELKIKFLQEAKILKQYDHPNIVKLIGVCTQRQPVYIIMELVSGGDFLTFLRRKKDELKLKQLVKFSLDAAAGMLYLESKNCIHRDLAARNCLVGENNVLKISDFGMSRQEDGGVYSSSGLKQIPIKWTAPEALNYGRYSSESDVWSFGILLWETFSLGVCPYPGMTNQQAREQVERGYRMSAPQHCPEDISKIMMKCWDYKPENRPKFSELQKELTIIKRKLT
Serine/threonine-protein kinase WNK2 (Homo sapiens), sequence (Q9Y3S1 whole entry, the tested form may be a part): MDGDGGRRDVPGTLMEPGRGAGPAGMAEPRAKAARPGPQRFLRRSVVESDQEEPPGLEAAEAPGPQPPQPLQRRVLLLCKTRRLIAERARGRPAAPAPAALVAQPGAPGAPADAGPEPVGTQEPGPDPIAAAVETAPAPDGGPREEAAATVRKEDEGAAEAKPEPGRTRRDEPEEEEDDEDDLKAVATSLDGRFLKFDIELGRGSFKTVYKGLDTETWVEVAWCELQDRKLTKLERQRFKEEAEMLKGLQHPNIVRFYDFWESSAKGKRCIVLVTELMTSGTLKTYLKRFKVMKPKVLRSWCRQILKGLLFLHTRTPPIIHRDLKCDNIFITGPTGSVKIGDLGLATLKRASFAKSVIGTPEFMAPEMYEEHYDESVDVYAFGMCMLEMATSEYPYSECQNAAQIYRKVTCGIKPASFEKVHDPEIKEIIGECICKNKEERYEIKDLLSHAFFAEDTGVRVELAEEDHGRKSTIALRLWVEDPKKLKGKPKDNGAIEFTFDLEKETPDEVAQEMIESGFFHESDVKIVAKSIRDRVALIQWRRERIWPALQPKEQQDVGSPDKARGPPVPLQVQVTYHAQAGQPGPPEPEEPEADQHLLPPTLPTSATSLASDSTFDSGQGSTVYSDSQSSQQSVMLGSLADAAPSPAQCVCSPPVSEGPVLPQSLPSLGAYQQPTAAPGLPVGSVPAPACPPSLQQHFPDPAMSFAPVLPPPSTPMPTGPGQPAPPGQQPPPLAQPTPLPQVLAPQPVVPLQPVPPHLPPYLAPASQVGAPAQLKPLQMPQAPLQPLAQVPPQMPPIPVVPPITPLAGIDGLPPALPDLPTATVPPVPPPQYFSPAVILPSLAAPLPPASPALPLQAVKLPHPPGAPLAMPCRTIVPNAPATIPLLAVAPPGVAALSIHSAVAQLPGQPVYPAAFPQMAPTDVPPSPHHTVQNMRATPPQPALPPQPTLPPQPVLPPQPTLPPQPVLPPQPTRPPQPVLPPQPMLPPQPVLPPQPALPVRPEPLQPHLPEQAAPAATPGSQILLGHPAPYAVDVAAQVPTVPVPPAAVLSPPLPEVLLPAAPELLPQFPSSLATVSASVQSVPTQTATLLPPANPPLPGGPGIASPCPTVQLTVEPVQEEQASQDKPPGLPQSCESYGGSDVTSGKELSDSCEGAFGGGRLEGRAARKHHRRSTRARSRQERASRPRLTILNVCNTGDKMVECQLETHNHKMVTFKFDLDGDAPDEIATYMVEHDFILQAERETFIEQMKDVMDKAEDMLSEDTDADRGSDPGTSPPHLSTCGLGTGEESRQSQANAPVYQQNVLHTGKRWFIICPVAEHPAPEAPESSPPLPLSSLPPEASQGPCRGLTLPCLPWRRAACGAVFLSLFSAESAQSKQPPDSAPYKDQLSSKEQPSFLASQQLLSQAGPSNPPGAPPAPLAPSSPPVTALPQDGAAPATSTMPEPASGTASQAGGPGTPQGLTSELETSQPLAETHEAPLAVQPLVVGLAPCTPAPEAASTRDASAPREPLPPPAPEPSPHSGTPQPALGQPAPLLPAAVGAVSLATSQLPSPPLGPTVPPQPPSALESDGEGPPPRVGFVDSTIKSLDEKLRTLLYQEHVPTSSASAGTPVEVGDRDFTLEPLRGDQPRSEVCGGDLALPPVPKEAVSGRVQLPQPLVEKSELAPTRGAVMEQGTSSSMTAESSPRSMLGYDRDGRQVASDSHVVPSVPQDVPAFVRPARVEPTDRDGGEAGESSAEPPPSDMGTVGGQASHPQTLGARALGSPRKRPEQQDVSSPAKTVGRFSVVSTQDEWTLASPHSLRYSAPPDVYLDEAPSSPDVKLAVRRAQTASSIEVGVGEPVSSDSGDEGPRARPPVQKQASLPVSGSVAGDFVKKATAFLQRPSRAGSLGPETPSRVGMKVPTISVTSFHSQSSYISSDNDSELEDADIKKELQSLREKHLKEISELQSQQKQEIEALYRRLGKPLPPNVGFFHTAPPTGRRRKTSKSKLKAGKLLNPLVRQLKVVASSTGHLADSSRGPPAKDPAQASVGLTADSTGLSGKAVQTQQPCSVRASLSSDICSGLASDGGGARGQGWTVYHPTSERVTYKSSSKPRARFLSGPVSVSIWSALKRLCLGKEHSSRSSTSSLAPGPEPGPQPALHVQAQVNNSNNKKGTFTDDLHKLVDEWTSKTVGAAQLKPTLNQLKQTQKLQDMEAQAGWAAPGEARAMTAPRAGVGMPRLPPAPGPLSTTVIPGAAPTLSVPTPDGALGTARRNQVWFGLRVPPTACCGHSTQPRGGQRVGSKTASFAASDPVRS
STE20-like serine/threonine-protein kinase (Homo sapiens), sequence (Q9H2G2 whole entry, looked up, the tested form may be a part): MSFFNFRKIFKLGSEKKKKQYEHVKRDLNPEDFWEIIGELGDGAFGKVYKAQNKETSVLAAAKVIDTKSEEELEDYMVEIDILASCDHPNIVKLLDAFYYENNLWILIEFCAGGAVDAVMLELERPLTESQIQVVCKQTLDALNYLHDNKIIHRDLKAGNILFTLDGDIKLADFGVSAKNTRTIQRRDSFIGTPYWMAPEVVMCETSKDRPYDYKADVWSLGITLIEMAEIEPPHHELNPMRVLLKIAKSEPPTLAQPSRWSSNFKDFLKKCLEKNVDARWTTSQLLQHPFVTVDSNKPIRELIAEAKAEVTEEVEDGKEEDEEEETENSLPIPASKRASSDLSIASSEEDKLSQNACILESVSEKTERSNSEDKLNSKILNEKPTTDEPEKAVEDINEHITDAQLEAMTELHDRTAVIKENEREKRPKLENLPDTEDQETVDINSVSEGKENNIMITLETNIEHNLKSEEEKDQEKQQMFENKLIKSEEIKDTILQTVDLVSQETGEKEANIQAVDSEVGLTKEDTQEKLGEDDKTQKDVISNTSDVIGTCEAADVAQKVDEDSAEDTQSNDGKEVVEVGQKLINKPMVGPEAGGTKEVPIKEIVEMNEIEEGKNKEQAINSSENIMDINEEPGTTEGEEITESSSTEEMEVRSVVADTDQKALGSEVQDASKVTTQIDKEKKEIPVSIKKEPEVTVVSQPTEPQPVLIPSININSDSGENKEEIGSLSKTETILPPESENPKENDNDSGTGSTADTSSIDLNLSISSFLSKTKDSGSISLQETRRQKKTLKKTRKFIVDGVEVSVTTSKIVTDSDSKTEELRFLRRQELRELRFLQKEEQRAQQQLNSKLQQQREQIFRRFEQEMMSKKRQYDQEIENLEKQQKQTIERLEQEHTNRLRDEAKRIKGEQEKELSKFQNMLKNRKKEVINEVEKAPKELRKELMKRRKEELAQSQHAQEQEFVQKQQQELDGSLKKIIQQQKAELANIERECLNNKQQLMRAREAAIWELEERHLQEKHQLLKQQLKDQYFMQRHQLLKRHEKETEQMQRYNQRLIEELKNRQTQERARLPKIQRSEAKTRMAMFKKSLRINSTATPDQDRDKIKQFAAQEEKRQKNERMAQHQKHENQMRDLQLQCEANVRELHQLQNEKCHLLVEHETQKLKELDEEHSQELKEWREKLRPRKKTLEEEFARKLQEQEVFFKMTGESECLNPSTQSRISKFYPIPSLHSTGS
FKBP12A/mTOR (Homo sapiens), sequence (P62942 2-108 limits assumed, other chains not shown): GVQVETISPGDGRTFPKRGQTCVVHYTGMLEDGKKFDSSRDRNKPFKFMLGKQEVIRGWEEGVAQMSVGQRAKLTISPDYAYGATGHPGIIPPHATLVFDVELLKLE

Compound	Activity [1] [%]	Activity [2] [%]	Activity [3] [%]	Activity [4] [%]	Activity [5] [%]	Activity [6] [%]	Activity [7] [%]	Activity [8] [%]	Activity (Homo sapiens) [%]	Activity [9] [%]	Activity [10] [%]	Activity [11] [%]	Activity [12] [%]	Activity [13] [%]	Activity [14] [%]	Activity [15] [%]	Activity [16] [%]	Activity [17] [%]	Activity [18] [%]	Activity [19] [%]	other results
N=C1NC(=O)/C(=C\c2ccc(-c3cccc([N+](=O)[O-])c3)o2)S1	107	76	100	97	25	93	88	109	116	92	98	79	92	92	107	103	93	95	95	101	
C=CCOC(=O)c1cc(-c2ccc(/C=C3/NC(=S)NC3=O)o2)ccc1Cl	106	90	99	103	16	98	85	104	82	100	96	91	101	74	97	104	105	87	87	96	Activity (NB-4): Active; Activity (HL-60): Active
